Source: patent US20050165081A1, “Use of anastrozole for the treatment of post-menopausal women having early breast cancer” (priority 2001, published 2005)
“Also recorded” adds a separate entry of the source. Where a name gives a salt, the structure may show the parent alone. Read-outs that look alike come from different tables or passages of the source.

Key:
[1] = assay type: in vivo
Protocol: (§1) The trial was designed to compare tamoxifen (20 mg once daily [od]) and anastrozole (1 mg od) and to compare tamoxifen (20 mg od) and the combination of anastrozole (1 mg od) plus tamoxifen (20 mg od) as adjuvant treatment in terms of: • a) time to recurrence of breast cancer (defined as the earliest of local or distant recurrence, new primary breast cancer, or death); and • b) safety and side effects. Secondary objectives of this trial were to compare (i) tamoxifen and anastrozole and (ii) to compare tamoxifen and the combination of anastrozole plus tamoxifen as adjuvant treatment in terms of: • a) time to distant recurrence; • b) survival; and • c) incidence of new breast primaries.
(§2) Specifically, the trial was designed as a randomised, double-blind, multicentre trial to compare the efficacy and safety of tamoxifen alone, anastrozole alone and anastrozole in combination with tamoxifen as adjuvant treatment for breast cancer in post-menopausal women.
At the major analysis, the incidence rates of the following pre-defined adverse events was formally compared between treatment groups defined by treatment received: hot flushes, nausea and vomiting, asthenia, mood disturbances, musculo-skeletal disorders, vaginal bleeding, vaginal discharge, endometrial cancer, fractures, cataract, venous thromboembolic events, and ischaemic cardiovascular disease. The primary analysis includes all patients who received trial treatment, analysed according to treatment received. A secondary subgroup analysis was also be undertaken, analysed according to trial treatment received, in patients with oestrogen receptor (ER) positive and/or progesterone receptor (PR) positive tumours, patients with ER negative and PR negative tumours, and all other patients remaining safety data was summarised and presented by treatment received.

early breast cancer = test: Randomised, double-blind, multicentre adjuvant trial: time to disease recurrence / disease-free survival and new breast primaries; assay type: in vivo, post-menopausal women; conditions: for First event / First events: Contralateral (DCIS) / First events: Contralateral (invasive) / First events: Death - breast cancer / First events: Death - other reason / First events: Distant / First events: Locoregional: number of first events, ITT population
Protocol: as §1, §2
Patients were assessed at entry, 3 months, 6 months and thereafter at 6-month intervals. Patients were recruited from 381 centres and in 21 countries. The patients were recruited between July 1996 and March 2000.
The double blind trial used both active and placebo anastrozole and tamoxifen tables, in order to maintain blindness to trial therapy. Anastrozole 1 mg and matching anastrozole placebo were supplied as white, film-coated tablets. Tamoxifen 20 mg active tablets and matching tamoxifen placebo were supplied as white, round, biconvex tablets. Patients were randomised to receive one of three oral therapy regimens. The daily dose is one tablet of anastrozole (1 mg active or placebo) plus one tablet of tamoxifen (20 mg active or placebo). Patients were instructed to take their daily dose at approximately the same time each day. At entry to the trial patients received either a 13-week supply or a 26-week supply of trial material. Patients who received a 13-week supply received a further 13-week supply at the first follow-up visit (3-months). From the 6-month visit onwards, patients received a 26-week supply. In order to assess compliance, patients were asked to return all unused tablets at each visit.
Therapy was started as soon as possible after randomisation, but not more than 8 weeks after completion of surgery and chemotherapy. […] Primary chemotherapy must have started within 8 weeks of completing primary surgery. Patients who stop primary chemotherapy before completion of the planned number of cycles may also be randomised. […] These drugs include the following:— • cytotoxic chemotherapy; • oral adminstration of ketoconazole (antifungal) or related compounds (i.e. topical applications are acceptable); • other hormonal treatments for breast cancer.
Patients were reviewed for recurrence of breast cancer at all follow-up visits, using the following criteria, which are based on British Breast Group recommendations:—
New breast primaries (either contralateral or ipsilateral) were regarded as disease recurrence events in the statistical analyses of time to recurrence.
The primary statistical endpoint of the trial was time to disease recurrence (locoregional or distant recurrence, new primary breast cancer or death from any cause) and safety/tolerability. The secondary statistical endpoints were time to distant recurrence, time to death, the incidence of new breast primaries and the incidence of pre-defined adverse events. In summary, two treatment comparisons were made: (1) anastrozole alone compared to tamoxifen alone and (2) tamoxifen alone compared to anastrozole and tamoxifen in combination.

advanced breast cancer = conditions: advanced disease, cited from earlier work
breast cancer = conditions: adjuvant tamoxifen for two years or more, no concomitant chemotherapy; cited from earlier work

CC(C)(C#N)c1cc(Cn2cncn2)cc(C(C)(C)C#N)c1 [anastrozole]
overall tolerability in the adjuvant programme ([1]; FIG. 4, pre-defined adverse events): well tolerated
tolerability versus tamoxifen ([1]; endometrial cancer, vaginal bleeding, vaginal discharge, ischemic cerebrovascular events, venous thromboembolic events, hot flushes, weight gain): significantly better tolerated
rate of disease recurrence, comparison in words (early breast cancer; FIG. 2, receptor positive population): superior to tamoxifen
HR, disease-free survival (early breast cancer; ITT (overall) population, versus tamoxifen, HR <1.00 favours anastrozole or the combination): 0.83
reduction in recurrence rate (early breast cancer; hormone receptor positive (ER and/or PR positive) patients, versus tamoxifen): 22%
reduction in the rate of recurrence events (early breast cancer; main analysis, all patients, versus tamoxifen, locoregional, distant, contralateral events and deaths): 17%
First event (early breast cancer): 317
First events: Contralateral (DCIS) (early breast cancer): 5
First events: Contralateral (invasive) (early breast cancer): 9
First events: Death - breast cancer (early breast cancer): 2
First events: Death - other reason (early breast cancer): 78
First events: Distant (early breast cancer): 156
First events: Locoregional (early breast cancer): 67
incidence of new primary (contralateral) breast cancer, comparison in words (early breast cancer; overall population): significantly more effective than tamoxifen
disease-free survival / rate of disease recurrence, comparison in words (early breast cancer; overall population, adjuvant treatment of early breast cancer): significantly more effective than tamoxifen; also recorded: superior to tamoxifen
incidence of new primary (contralateral) breast cancer, comparison in words (early breast cancer; overall population, listed as anastrazole): superiority
HR, incidence of new (contralateral) breast primaries (early breast cancer; overall population, versus tamoxifen): 0.42
OR, incidence of contralateral breast cancer (early breast cancer; overall population, versus tamoxifen, 1.00 would show equivalence): 0.42
HR, disease-free survival (early breast cancer; receptor positive population, versus tamoxifen): 0.78

CC/C(=C(\c1ccccc1)c1ccc(OCCN(C)C)cc1)c1ccccc1 [tamoxifen, tamoxifen citrate]
patients who will respond (advanced breast cancer; ER and PR negative patients): < 10%
patients who will respond (advanced breast cancer; ER and PR positive patients): approximately 70%
tolerability versus anastrozole ([1]; musculoskeletal disorders and fractures): better tolerated
First event (early breast cancer): 379
First events: Contralateral (DCIS) (early breast cancer): 3
First events: Contralateral (invasive) (early breast cancer): 30
First events: Death - breast cancer (early breast cancer): 1
First events: Death - other reason (early breast cancer): 81
First events: Distant (early breast cancer): 181
First events: Locoregional (early breast cancer): 83
annual reduction in mortality (breast cancer): 24%
annual reduction in recurrence (breast cancer): 39%
